Like-named read-outs stand apart in the source and are kept apart here.
Legend:
[1] = molecular target: Mcl-1 (Homo sapiens (Human), UniProt Q07820); assay: Fluorescence polarization anisotropy (FPA) competition assay, FITC-Bak or FITC-Bim BH3 peptide; format: binding; conditions: read-out: Ki for Inhibition of Mcl-1 by FPA assay
[2] = test system: H929 human cancer cell lines; assay: Cellular viability / proliferation (Cell TiterGlo, 72 h); format: cell-based
Outline: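 Compounds were added as 2-fold serial dilutions from 50 μM (final DMSO <1%) to H929 cells seeded 1,000 per well in 10% FBS medium one day earlier.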

[3] = Homo sapiens, NCI-H929, 72 h, read-out: GI50 on cellular proliferation of H929 human cancer cell lines, H929 cells, 72 h, Cell TiterGlo, 10% FBS

Chain of Mcl-1 (Q07820 172-327): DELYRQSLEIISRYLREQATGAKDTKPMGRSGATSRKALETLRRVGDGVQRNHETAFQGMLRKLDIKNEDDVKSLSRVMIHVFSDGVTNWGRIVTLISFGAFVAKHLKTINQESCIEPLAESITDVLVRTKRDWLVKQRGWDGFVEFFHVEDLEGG

Row | Compound | Ki [1] | GI50 [2, 3] | GI50 ([2]; H929 cells, 72 h, Cell TiterGlo, 10% FBS, read-out: GI50 on cellular proliferation of H929 human cancer cell lines)
1 | Cc1cc(OCCCc2c3n(c4c(-c5c(C)nn(C)c5C)c(Cl)ccc24)[C@H](C)CN(c2cc(C(=O)O)cc4c2OCCO4)C3=O)cc(C)c1Cl [Example 26, (R)-8-(7-chloro-10-(3-(4-chloro-3,5-dimethylphenoxy)propyl)-4-methyl-1-oxo-6-(1,3,5-trimethyl-1H-pyrazol-4-yl)-3,4-dihydropyrazino[1,2-a]indol-2(1H)-yl)-2,3-dihydrobenzo[b][1,4]dioxine-6-carboxylic acid] | 1.3 nM | 830 nM | 
2 | Cc1cc(OCCCc2c3n(c4c(-c5c(C)nn(C)c5C)c(Cl)ccc24)CCCN(c2cc(C(=O)O)cc4cnn(C)c24)C3=O)cc(C)c1Cl [Example 123, 7-(8-Chloro-11-(3-(4-chloro-3,5-dimethylphenoxy)propyl)-1-oxo-7-(1,3,5-trimethyl-1H-pyrazol-4-yl)-4,5-dihydro-1H-[1,4]diazepino[1,2-a]indol-2(3H)-yl)-1-methyl-1H-indazole-5-carboxylic acid] | < 1 nM | 6900 nM | 
3 | Cc1cc(OCCCc2c3n(c4c(-c5c(C)nn(C)c5C)c(Cl)ccc24)[C@H](C)CN(c2ccc(Cl)c4c(C(=O)O)cn(C)c24)C3=O)cc(C)c1Cl [Example 435, (R)-4-Chloro-7-(7-chloro-10-(3-(4-chloro-3,5-dimethylphenoxy)propyl)-4-methyl-1-oxo-6-(1,3,5-trimethyl-1H-pyrazol-4-yl)-3,4-dihydropyrazino[1,2-a]indol-2(1H)-yl)-1-methyl-1H-indole-3-carboxylic acid] | < 1 nM | 570 nM | 
4 | Cc1cc(OCCCc2c3n(c4c(-c5c(C)nn(C)c5C)c(Cl)ccc24)[C@H](C)CN(c2cc(C(=O)O)c4ccn(CCN5CCOCC5)c4c2)C3=O)cc(C)c1Cl [Example 94, (R)-6-(7-chloro-10-(3-(4-chloro-3,5-dimethylphenoxy)propyl)-4-methyl-1-oxo-6-(1,3,5-trimethyl-1H-pyrazol-4-yl)-3,4-dihydropyrazino[1,2-a]indol-2(1H)-yl)-1-(2-morpholinoethyl)-1H-indole-4-carboxylic acid] | < 1 nM | 1500 nM | 
5 | Cc1cc(OCCCc2c3n(c4c(-c5c(C)nn(CC6CCN(C)C6)c5C)c(Cl)ccc24)[C@H](C)CN(c2cn(C)c4ccc(C(=O)O)cc24)C3=O)cc(C)c1Cl (stereo partly drawn) [Example 261, 3-((4R)-7-chloro-10-(3-(4-chloro-3,5-dimethylphenoxy)propyl)-6-(3,5-dimethyl-1-((1-methylpyrrolidin-3-yl)methyl)-1H-pyrazol-4-yl)-4-methyl-1-oxo-3,4-dihydropyrazino[1,2-a]indol-2(1H)-yl)-1-methyl-1H-indole-5-carboxylic acid] | < 1 nM | 530 nM | 
6 | Cc1cc(OCCCc2c3n(c4c(-c5c(C)nn(C)c5C)c(Cl)ccc24)CCCN(c2cc(C(=O)O)c4c(Br)cn(C)c4c2)C3=O)cc(C)c1Cl [Example 2, 3-Bromo-6-(8-chloro-11-(3-(4-chloro-3,5-dimethylphenoxy)propyl)-1-oxo-7-(1,3,5-trimethyl-1H-pyrazol-4-yl)-4,5-dihydro-1H-[1,4]diazepino[1,2-a]indol-2(3H)-yl)-1-methyl-1H-indole-4-carboxylic acid] | < 1 nM | 8300 nM | 
7 | Cc1cc(OCCCc2c3n(c4c(-c5c(C)nn(C)c5C)c(Cl)ccc24)[C@H](C)CN(c2cn(C)c4ccc(C(=O)NNc5ccccc5)cc24)C3=O)cc(C)c1Cl [Example 427, (R)-3-(7-Chloro-10-(3-(4-chloro-3,5-dimethylphenoxy)propyl)-4-methyl-1-oxo-6-(1,3,5-trimethyl-1H-pyrazol-4-yl)-3,4-dihydropyrazino[1,2-a]indol-2(1H)-yl)-1-methyl-N′-phenyl-1H-indole-5-carbohydrazide] | 1.2 nM | 490 nM | 
8 | CCn1cc2cc(C(=O)O)cc(N3CCCn4c(c(CCCOc5cc(C)c(Cl)c(C)c5)c5ccc(Cl)c(-c6c(C)nn(C)c6C)c54)C3=O)c2n1 [Example 124, 7-(8-chloro-11-(3-(4-chloro-3,5-dimethylphenoxy)propyl)-1-oxo-7-(1,3,5-trimethyl-1H-pyrazol-4-yl)-4,5-dihydro-1H-[1,4]diazepino[1,2-a]indol-2(3H)-yl)-2-ethyl-2H-indazole-5-carboxylic acid] | < 1 nM | 1900 nM | 
9 | Cc1cc(OCCCc2c3n(c4c(-c5c(C)nn(C)c5C)c(Cl)ccc24)[C@H](C)CN(c2c[nH]c4ccc(-c5ncn(C)n5)cc24)C3=O)cc(C)c1Cl [Example 471, (R)-7-chloro-10-(3-(4-chloro-3,5-dimethylphenoxy)propyl)-4-methyl-2-(5-(1-methyl-1H-1,2,4-triazol-3-yl)-1H-indol-3-yl)-6-(1,3,5-trimethyl-1H-pyrazol-4-yl)-3,4-dihydropyrazino[1,2-a]indol-1(2H)-one] | 2.3 nM | 360 nM | 
10 | Cc1cc(OCCCc2c3n(c4c(-c5c(C)nn(C)c5C)c(Cl)ccc24)CCCN(c2cccc4c(C(=O)O)n(C)nc24)C3=O)cc(C)c1Cl [Example 16, 7-[8-Chloro-11-[3-(4-chloro-3,5-dimethyl-phenoxy)propyl]-1-oxo-7-(1,3,5-trimethylpyrazol-4-yl)-4,5-dihydro-3H-[1,4]diazepino[1,2-a]indol-2-yl]-2-methyl-indazole-3-carboxylic acid] | < 1 nM | 2900 nM | 
11 | Cc1cc(OCCCc2c3n(c4c(-c5c(C)nn(C)c5C)c(Cl)ccc24)[C@H](C)CN(c2cn(C)c4ccc(C(=O)NCc5ccccn5)cc24)C3=O)cc(C)c1Cl [Example 281, 3-[(4R)-7-chloro-10-[3-(4-chloro-3,5-dimethyl-phenoxy)propyl]-4-methyl-1-oxo-6-(1,3,5-trimethylpyrazol-4-yl)-3,4-dihydropyrazino[1,2-a]indol-2-yl]-1-methyl-N-(2-pyridylmethyl)indole-5-carboxamide] | 2.2 nM | 1400 nM | 
12 | Cc1cc(OCCCc2c3n(c4c(-c5c(C)ncnc5C)c(Cl)ccc24)[C@H](C)CN(c2cccc4c(C(=O)O)cccc24)C3=O)cc(C)c1Cl [Example 148, 5-[(4R)-7-chloro-10-[3-(4-chloro-3,5-dimethyl-phenoxy)propyl]-6-(4,6-dimethylpyrimidin-5-yl)-4-methyl-1-oxo-3,4-dihydropyrazino[1,2-a]indol-2-yl]naphthalene-1-carboxylic acid] | < 1 nM | 650 nM | 
13 | Cc1noc(-c2ccc3c(c2)c(N2C[C@@H](C)n4c(c(CCCOc5cc(C)c(Cl)c(C)c5)c5ccc(Cl)c(-c6c(C)nn(C)c6C)c54)C2=O)cn3C)n1 [Example 393, (R)-7-Chloro-10-(3-(4-chloro-3,5-dimethylphenoxy)propyl)-4-methyl-2-(1-methyl-5-(3-methyl-1,2,4-oxadiazol-5-yl)-1H-indol-3-yl)-6-(1,3,5-trimethyl-1H-pyrazol-4-yl)-3,4-dihydropyrazino[1,2-a]indol-1(2H)-one] | 2.3 nM | 1200 nM | 
14 | Cc1cc(OCCCc2c3n(c4c(-c5c(C)ncnc5C)c(Cl)ccc24)CCCN(c2cccc4c(C(=O)O)cccc24)C3=O)cc(C)c1Cl [Example 151, 5-[8-Chloro-11-[3-(4-chloro-3,5-dimethyl-phenoxy)propyl]-7-(4,6-dimethylpyrimidin-5-yl)-1-oxo-4,5-dihydro-3H-[1,4]diazepino[1,2-a]indol-2-yl]naphthalene-1-carboxylic acid] | < 1 nM | 2100 nM | 
15 | Cc1cc(N2C[C@@H](C)n3c(c(CCCOc4cc(C)c(Cl)c(C)c4)c4ccc(Cl)c(-c5c(C)nn(C)c5C)c43)C2=O)c2c(c1)cc(C(N)=O)n2C [Example 332, (R)-7-(7-Chloro-10-(3-(4-chloro-3,5-dimethylphenoxy)propyl)-4-methyl-1-oxo-6-(1,3,5-trimethyl-1H-pyrazol-4-yl)-3,4-dihydropyrazino[1,2-a]indol-2(1H)-yl)-1,5-dimethyl-1H-indole-2-carboxamide] | 2.8 nM | 670 nM | 
16 | (R)-3-(7-chloro-10-(3-(4-chloro-3,5-dimethylphenoxy)propyl)-6-(3,5-dimethyl-1-((1-methylpiperidin-4-yl)methyl)-1H-pyrazol-4-yl)-4-methyl-1-oxo-3,4-dihydropyrazino[1,2-a]indol-2(1H)-yl)-1-methyl-1H-indole-5-carboxylic acid [Example 146] | 4 nM |  | 2400 nM
17 | Cc1cc(OCCCc2c3n(c4c(-c5c(C)nc(CN6CCC(O)C6)nc5C)c(Cl)ccc24)[C@H](C)CN(c2cn(C)c4ccc(C(=O)O)cc24)C3=O)cc(C)c1Cl (stereo partly drawn) [Example 397, 3-((4R)-7-Chloro-10-(3-(4-chloro-3,5-dimethylphenoxy)propyl)-6-(2-((3-hydroxypyrrolidin-1-yl)methyl)-4,6-dimethylpyrimidin-5-yl)-4-methyl-1-oxo-3,4-dihydropyrazino[1,2-a]indol-2(1H)-yl)-1-methyl-1H-indole-5-carboxylic acid] | 1.2 nM | 340 nM | 
18 | Cc1cc(OCCCc2c3n(c4c(-c5c(C)ncnc5C)c(Cl)ccc24)CCCN(c2cc(C(=O)O)cc4c2OCCO4)C3=O)cc(C)c1Cl [Example 154, 5-[8-Chloro-11-[3-(4-chloro-3,5-dimethyl-phenoxy)propyl]-7-(4,6-dimethylpyrimidin-5-yl)-1-oxo-4,5-dihydro-3H-[1,4]diazepino[1,2-a]indol-2-yl]-2,3-dihydro-1,4-benzodioxine-7-carboxylic acid] | < 1 nM | 1300 nM | 
19 | Cc1cc(OCCCc2c3n(c4c(-c5c(C)n[nH]c5C)c(Cl)ccc24)[C@H](C)CN(c2cc(C(=O)O)c4ccn(C)c4c2)C3=O)cc(C)c1Cl [Example 70, (R)-6-(7-chloro-10-(3-(4-chloro-3,5-dimethylphenoxy)propyl)-6-(3,5-dimethyl-1H-pyrazol-4-yl)-4-methyl-1-oxo-3,4-dihydropyrazino[1,2-a]indol-2(1H)-yl)-1-methyl-1H-indole-4-carboxylic acid] | < 1 nM | 2400 nM | 
